The source of these data is US9179674B2, “Macrocyclic picolinamide compounds with fungicidal activity” (DOW AGROSCIENCES LLC, priority 2013, dated 2015).

Structures are written as SMILES. Read-outs that look alike come from different tables or passages of the source.

The subject of data set [1] is Mycosphaerella graminicola; Anamorph: Septoria tritici. Description: Leaf Blotch of Wheat fungicidal activity (SEPTTR). The format is in vivo. As to conditions: Zymoseptoria tritici; for pest or weed control at 100 ppm: rate 100 ppm; for pest or weed control at 121.5 g/ha: rate 121.5 g/H. In short, it runs like this:
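Acetone solutions diluted with nine volumes of water containing 110 ppm Triton X-100, sprayed to run-off on first-leaf wheat seedlings (Yuma), inoculated with S. tritici before or after treatment. Plants held in dew chambers, then in a 20 °C greenhouse. Disease severity (0–100%) scored when untreated plants fully symptomatic; % control relative to untreated.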

Data set [2] has as its system Puccinia triticina. Kind of data set: Wheat Brown Rust fungicidal activity (PUCCRT). The data set is classed as in vivo. Particulars: Puccinia triticina; for pest or weed control at 100 ppm: rate 100 ppm; for pest or weed control at 121.5 g/ha: rate 121.5 g/H. In short, it runs like this: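 Yuma wheat seedlings at first-leaf stage sprayed to run-off (acetone solution in water with 110 ppm Triton X-100) or track-sprayed as EC with 0.1% Trycol 5941; inoculated with P. triticina spores before or after treatment. Overnight dark dew at 22° C., then greenhouse 24° C.; disease severity 0–100% gives percent control vs untreated.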

Setting [3] is: 24 h, 1 Day Protectant, read-out: Disease control SEPTTR 1DP.
[4] abbreviates: 72 h, 3 Day Curative, read-out: Disease control SEPTTR 3DC.
Where [5] appears, read: 24 h, 1 Day Protectant, read-out: Disease control PUCCRT 1DP.
Where [6] appears, read: 72 h, 3 Day Curative, read-out: Disease control PUCCRT 3DC.

The melting point is the temperature of the solid-liquid transition.

Turning to `COc1ccnc(C(=O)N[C@H]2COC[C@H](Cc3cccc4ccccc34)[C@@H](OCC(C)C)[C@H](C)OC2=O)c1O` [Compound F10], the melting point lay within 78 to 80 °C. The pest or weed control at 100 ppm in data set [1] (setting [3]) was in the range of 80 to 100%. For the same compound, the pest or weed control at 100 ppm in data set [1] (setting [4]) lay within 0 to 80%. In addition, the pest or weed control at 100 ppm in data set [2] (setting [5]) lay in the range of 80 to 100%.

Turning to `COc1ccnc(C(=O)N[C@H]2COC[C@H](CC3CCCC3)[C@@H](OCC(C)C)[C@H](C)OC2=O)c1O` [Compound F46], the melting point lay in the range of 132 to 134 °C. Besides, in data set [1] (setting [3]), the pest or weed control at 100 ppm is 80 to 100%. The pest or weed control at 100 ppm in data set [1] (setting [4]) was in the range of 80 to 100%. The pest or weed control at 100 ppm in data set [2] (setting [5]) is 80 to 100%. In addition, in data set [2] (setting [6]), the pest or weed control at 100 ppm lay in the range of 80 to 100%.

Turning to `COc1ccnc(C(=O)N[C@H]2COC[C@H](CCc3ccccc3)[C@@H](OC3CCCC3)[C@H](C)OC2=O)c1O` [Compound F1], the melting point lay within 51 to 58 °C. Besides, the pest or weed control at 100 ppm in data set [1] (setting [3]) was in the range of 80 to 100%. In addition, the pest or weed control at 100 ppm in data set [1] (setting [4]) lay in the range of 0 to 80%. Besides, the pest or weed control at 100 ppm in data set [2] (setting [5]) fell in the range of 80 to 100%. For the same compound, the pest or weed control at 100 ppm in data set [2] (setting [6]) was in the range of 80 to 100%.

The compound `CC(C)C(=O)O[C@@H]1[C@@H](Cc2cccc3ccccc23)COC[C@H](N(C(=O)OC(C)(C)C)C(=O)OC(C)(C)C)C(=O)O[C@H]1C` [Compound F128, [(3S,6S,7R,8S)-3-[bis(tert-butoxycarbonyl)amino]-6-methyl-8-(1-naphthylmethyl)-4-oxo-1,5-dioxonan-7-yl]2-methylpropanoate] gave a melting point of 130 to 132 °C.

In turn, `Cc1ccc(C[C@H]2COC[C@H](N)C(=O)O[C@@H](C)[C@@H]2OCC(C)C)cc1.Cl` yielded a melting point of 81 to 84 °C.

`CCCCCO[C@@H]1[C@@H](Cc2ccc(Cl)cc2Cl)COC[C@H](NC(=O)c2nccc(OC)c2O)C(=O)O[C@H]1C` [Compound F43] showed a melting point of 50 to 54 °C. In data set [1] (setting [3]), the pest or weed control at 100 ppm was in the range of 80 to 100%. Further, in data set [1] (setting [4]), the pest or weed control at 100 ppm fell in the range of 0 to 80%. Also, the pest or weed control at 100 ppm in data set [2] (setting [5]) lay in the range of 0 to 80%.

For the compound `COc1ccnc(C(=O)N[C@H]2COC[C@H](Cc3ccc(C)cc3)[C@@H](OC(=O)C(C)C)[C@H](C)OC2=O)c1OC(C)=O` [Compound F54], the melting point was 88 to 93 °C. In data set [1] (setting [3]), the pest or weed control at 100 ppm lay in the range of 80 to 100% and the pest or weed control at 121.5 g/ha was in the range of 80 to 100%. Further, in data set [1] (setting [4]), the pest or weed control at 100 ppm lay in the range of 80 to 100% and the pest or weed control at 121.5 g/ha is 80 to 100%. In addition, in data set [2] (setting [5]), the pest or weed control at 100 ppm lay in the range of 80 to 100% and the pest or weed control at 121.5 g/ha fell in the range of 80 to 100%. In data set [2] (setting [6]), the pest or weed control at 100 ppm lay in the range of 80 to 100% and the pest or weed control at 121.5 g/ha lay within 0 to 80%.

Regarding `CCCCCO[C@@H]1[C@@H](Cc2ccc(Cl)cc2Cl)COC[C@H](NC(=O)c2nccc(OC)c2OC(C)=O)C(=O)O[C@H]1C` [Compound F75], the melting point is 55 to 59 °C. Besides, in data set [1] (setting [3]), the pest or weed control at 100 ppm lay within 80 to 100% and the pest or weed control at 121.5 g/ha was 80 to 100%. For the same compound, in data set [1] (setting [4]), the pest or weed control at 100 ppm was in the range of 80 to 100% and the pest or weed control at 121.5 g/ha was 80 to 100%. In addition, in data set [2] (setting [5]), the pest or weed control at 100 ppm lay in the range of 80 to 100% and the pest or weed control at 121.5 g/ha was in the range of 80 to 100%. Further, in data set [2] (setting [6]), the pest or weed control at 100 ppm is 80 to 100% and the pest or weed control at 121.5 g/ha was in the range of 0 to 80%.

With `CCCCCO[C@@H]1[C@@H](Cc2ccc(C)cc2)COC[C@H](N(C(=O)OC(C)(C)C)C(=O)OC(C)(C)C)C(=O)O[C@H]1C` [Compound F134], the melting point lay in the range of 100 to 103 °C.

In turn, `C[C@@H]1OC(=O)[C@@H](N(C(=O)OC(C)(C)C)C(=O)OC(C)(C)C)COC[C@H](Cc2cccc3ccccc23)[C@H]1OC1CCCC1` [Compound F132, tert-butyl N-tert-butoxycarbonyl-N-[(3S,7S,8R,9S)-8-(cyclopentoxy)-9-methyl-7-(1-naphthylmethyl)-2-oxo-1,5-dioxonan-3-yl]carbamate] returned a melting point of 49 to 55 °C.

The compound `COc1ccnc(C(=O)N[C@H]2COC[C@H](Cc3ccc(Cl)cc3Cl)[C@@H](Oc3ccc(C)cc3)[C@H](C)OC2=O)c1OCOC(C)=O` [Compound F113] displayed a melting point of 70 to 74 °C. Also, the pest or weed control at 121.5 g/ha in data set [2] (setting [5]) was in the range of 80 to 100%.

On to `C[C@@H]1OC(=O)[C@@H](N(C(=O)OC(C)(C)C)C(=O)OC(C)(C)C)COC[C@H](Cc2ccc(F)cc2)[C@H]1OC(=O)C1CC1` [Compound F136], for which the melting point was in the range of 131 to 133 °C.

For the compound `COc1ccnc(C(=O)N[C@H]2COC[C@H](CC(F)(F)F)[C@@H](OCC(C)C)[C@H](C)OC2=O)c1OCOC(C)=O` [Compound F104], the pest or weed control at 100 ppm in data set [1] (setting [3]), in data set [1] (setting [4]), in data set [2] (setting [5]) and in data set [2] (setting [6]) was 80 to 100% in each case. The pest or weed control at 121.5 g/ha in data set [1] (setting [3]), in data set [1] (setting [4]), in data set [2] (setting [5]) and in data set [2] (setting [6]) was 80 to 100% in each case.

Turning to `COc1ccnc(C(=O)N[C@H]2COC[C@H](Cc3ccc(C)cc3)[C@@H](Oc3ccccc3)[C@H](C)OC2=O)c1O` [Compound F24], the pest or weed control at 100 ppm lay in the range of 80 to 100% in data set [1] (setting [3]), 0 to 80% in data set [1] (setting [4]), 80 to 100% in data set [2] (setting [5]) and 0 to 80% in data set [2] (setting [6]).

`COc1ccnc(C(=O)N[C@H]2COC[C@H](Cc3ccc(C(F)(F)F)cc3)[C@@H](OC(=O)C3CC3)[C@H](C)OC2=O)c1O` [Compound F26]: the pest or weed control at 100 ppm fell in the range of 80 to 100% in data set [1] (setting [3]), 0 to 80% in data set [1] (setting [4]) and 0 to 80% in data set [2] (setting [5]).

Regarding `COc1ccnc(C(=O)N[C@H]2COC[C@H](Cc3ccc(C)cc3)[C@@H](OCC(C)C)[C@H](C)OC2=O)c1O` [Compound F48, 3-hydroxy-N-((3S,7S,8R,9S)-8-isobutoxy-9-methyl-7-(4-methylbenzyl)-2-oxo-1,5-dioxonan-3-yl)-4-methoxypicolinamide], the pest or weed control at 100 ppm in data set [1] (setting [3]) lay within 80 to 100%; in data set [1] (setting [4]), 0 to 80%; in data set [2] (setting [5]), 80 to 100%; in data set [2] (setting [6]), 80 to 100%.

In the case of `CCCCCO[C@@H]1[C@@H](Cc2ccc(C)cc2)COC[C@H](NC(=O)c2nccc(OC)c2OC(C)=O)C(=O)O[C@H]1C` [Compound F53], the pest or weed control at 100 ppm in data set [1] (setting [3]), in data set [1] (setting [4]), in data set [2] (setting [5]) and in data set [2] (setting [6]) was 80 to 100% each time. The pest or weed control at 121.5 g/ha lay in the range of 80 to 100% in data set [1] (setting [3]), 0 to 80% in data set [1] (setting [4]), 80 to 100% in data set [2] (setting [5]) and 0 to 80% in data set [2] (setting [6]).

Turning to `CC(C)CO[C@@H]1[C@@H](Cc2cccc3ccccc23)COC[C@H](N(C(=O)OC(C)(C)C)C(=O)OC(C)(C)C)C(=O)O[C@H]1C` [Compound F133], the melting point is 57 to 63 °C.

In turn, `COc1ccnc(C(=O)N[C@H]2COC[C@H](Cc3ccc(Cl)cc3Cl)[C@@H](Oc3ccc(C)cc3)[C@H](C)OC2=O)c1O` [Compound F44] had a melting point of 81 to 85 °C. For the same compound, in data set [2] (setting [5]), the pest or weed control at 100 ppm lay in the range of 80 to 100%.

On to `COc1ccnc(C(=O)N[C@H]2COC[C@H](CCC(C)C)[C@@H](Oc3ccc(C)cc3)[C@H](C)OC2=O)c1O` [Compound F37], for which the pest or weed control at 100 ppm in data set [1] (setting [3]) lay within 80 to 100%; in data set [1] (setting [4]) it was 80 to 100%; in data set [2] (setting [5]), 80 to 100%; in data set [2] (setting [6]) it was 0 to 80%.

For the compound `COc1ccnc(C(=O)N[C@H]2COC[C@H](Cc3cccc4ccccc34)[C@@H](OC3CCCC3)[C@H](C)OC2=O)c1OCOC(C)=O` [Compound F86], the pest or weed control at 100 ppm in data set [1] (setting [3]), in data set [1] (setting [4]), in data set [2] (setting [5]) and in data set [2] (setting [6]) was 80 to 100% throughout.

Regarding `COc1ccnc(C(=O)N[C@H]2COC[C@H](CCC(C)C)[C@@H](OCCCC(F)(F)F)[C@H](C)OC2=O)c1O` [Compound F35], the pest or weed control at 100 ppm in data set [1] (setting [3]) lay within 80 to 100%; in data set [1] (setting [4]), 0 to 80%; in data set [2] (setting [5]) it was 80 to 100%.

In the case of `COc1ccnc(C(=O)N[C@H]2COC[C@H](CCc3ccccc3)[C@@H](OC(=O)C3CC3)[C@H](C)OC2=O)c1OC(C)=O` [Compound F57], the pest or weed control at 100 ppm in data set [1] (setting [3]), in data set [1] (setting [4]), in data set [2] (setting [5]) and in data set [2] (setting [6]) was 80 to 100% each time. The pest or weed control at 121.5 g/ha is 80 to 100% in data set [1] (setting [3]), 80 to 100% in data set [1] (setting [4]), 80 to 100% in data set [2] (setting [5]) and 0 to 80% in data set [2] (setting [6]).

As for `CCCCCO[C@@H]1[C@@H](Cc2ccc(F)cc2)COC[C@H](NC(=O)c2nccc(OC)c2OCOC(C)=O)C(=O)O[C@H]1C` [Compound F95], the pest or weed control at 100 ppm in data set [1] (setting [3]), in data set [1] (setting [4]), in data set [2] (setting [5]) and in data set [2] (setting [6]) was 80 to 100% throughout.

As for `COc1ccnc(C(=O)N[C@H]2COC[C@H](CC(F)(F)F)[C@@H](OCC(C)C)[C@H](C)OC2=O)c1O` [Compound F32], the pest or weed control at 100 ppm fell in the range of 80 to 100% in data set [1] (setting [3]), 0 to 80% in data set [1] (setting [4]), 80 to 100% in data set [2] (setting [5]) and 0 to 80% in data set [2] (setting [6]).
